Test results as given in article PMC3579193, “Elucidation of relaxin-3 binding interactions in the extracellular loops of RXFP3” (Frontiers in Endocrinology, 2013).
Values belong to the substance of their own block, whether it stands above or below them. Ends that are not written are not given here.

How the values were obtained:
RXFP4 over RXFP3 = conditions: ref Zhu et al., 2008; cited from earlier work
Description: (§1) Although residues in the peptides have been identified as critical for activity, the specific residues in the receptors that are interacting with these are unknown. […] In addition they determined that sites in transmembrane (TM) 2, 3, and 5 are involved in receptor activation by INSL5 ([Zhu et al., 2008]). None of the receptor chimeras resulted ...

HA-RXFP3 E77A (human) = HA-RXFP3 E77A (human) (UniProt Q9NSD7); experiment: europium-labelled ligand binding on cells; specific binding of 5 nM Eu-H3/I5 to transfected HEK-293T cells in 96 well optiplates; non-specific binding with 1 uM unlabeled H3 relaxin; expressed as ratio of specific binding to cell surface expression, normalized to HA-RXFP3
HA-RXFP3 E245A (human) = HA-RXFP3 E245A (human) (UniProt Q9NSD7); experiment: as above
RXFP4 = conditions: ref Liu et al., 2003a; cited from earlier work
Description: Relaxin-3 is a member of the relaxin peptide family. Peptides from this family activate relaxin family peptide (RXFP) receptors, which are Type I or Class A G protein-coupled receptors (GPCRs). […] The rela ... || Based on the hypothesis that coevolution of relaxin-3 and RXFP3 occurred in vertebrates and that residues important for relaxin-3 binding and activation should therefore be conserved we performed multiple sequence alignments of all vertebrate RXFP3 sequences. […] Figure 1A highlights sequence alignments of representative mammalian species (human, chimpanzee, rat, mouse, platypus) and representative lower vertebrate species (Frog and Zebrafish) from this analysis compa ... || Based on the hypothesis that coevolution of relaxin-3 and RXFP3 occurred in vertebrates, and in the knowledge that the key relaxin-3 B-chain residues are conserved across all vertebrate species ([Wilkinson et al., 2005b]), we performed multiple sequence alignments of all vertebrate RXFP3 sequences to identify highly conserved residues in the ELs and NT domain that may be involved in relaxin-3 binding. […] We have focused on glutamic (E) and aspartic acid (D) residues ...

[1] = tested on: chimeric RXFP3/4 receptors; conditions: ref Zhu et al., 2008; cited from earlier work
Description: as §1

rats = conditions: central administration, ref McGowan et al., 2005, 2006, Ganella et al., 2012b; cited from earlier work
Description: Relaxin-3 is involved in a wide range of behaviors, including feeding, stress responses, arousal, and cognitive processes ([Smith et al., 2011]). […] Relaxin-3 neuronal activity and production of relaxi ...

RXFP1 = conditions: ref Sudo et al., 2003; cited from earlier work
Description: Relaxin-3 is a member of the relaxin peptide family. Peptides from this family activate relaxin family peptide (RXFP) receptors, which are Type I or Class A G protein-coupled receptors (GPCRs). […] The rela ...

Substance: INSL5: related insulin-like peptide-5, ligand of RXFP4 (Insulin-like peptide INSL5 B … KESVRLCGLEYIRTVIYICASSRW; Insulin-like peptide INSL5 A … QDLQTLCCTDGCSMTDLSALC; ends and bridges not checked; cysteine pairing not given here; UniProt Q9Y5Q6 23-46; Q9Y5Q6 115-135, looked up)
- selectivity (RXFP4 over RXFP3): selectivity of INSL5 for RXFP4 over RXFP3

- loss of specific binding against HA-RXFP3 (HA-RXFP3 E77A (human)): 50%
- decrease in specific binding against HA-RXFP3 (HA-RXFP3 E245A (human)): 50%
Substance: mono-Eu-labeled relaxin-3 agonist H3 relaxin B-chain, INSL5 A chain (H3/I5) (ligand)

Substance: relaxin-3: highly conserved neuropeptide, member of the relaxin peptide family; endogenous ligand of RXFP3
- binding to and activation of RXFP4 (RXFP4): able to bind to and activate both RXFP4
- effect of receptor chimeras on binding or activity [1]: None of the receptor chimeras resulted in appreciable changes in relaxin-3 binding or activity
- effect on feeding (rats): increase feeding in rats
- binding to and activation of RXFP1 (RXFP1): able to bind to and activate both RXFP4 ([Liu et al., 2003a]) and RXFP1
